Test results published in patent US7737173B2, “Indole-3-carboxylic acid amide, ester, thioamide and thiol ester compounds bearing aryl or heteroaryl groups having sphingosine-1-phosphate (S1P) receptor antagonist biological activity” (Allergan, Inc., priority 2006, dated 2010).
Like-named read-outs stand apart in the source and are kept apart here.

Assays:
human S1P3 receptor = molecular target: T1, human S1P3 receptor (Homo sapiens, UniProt Q99500); assay: FLIPR Ca+2 assay: ability to activate or block activation of the human S1P3 receptor in T24 cells; assay type: cell-based
T1 construct: expressed in transfected cells
Experimental: Compounds were assessed for their ability to activate or block activation of the human S1P3 receptor in T24 cells stably expressing the human S1P3 receptor. Ten thousand cells/well were plated into 384-well poly-D-lysine coated plates one day prior to use. The growth media for the S1P3 receptor expressing cell line was McCoy's 5A medium supplemented with 10% charcoal-treated fetal bovine serum (FBS), 1% antibiotic-antimycotic and 400 μg/ml geneticin. On the day of the experiment, the cells were washed twice with Hank's Balanced Salt Solution supplemented with 20 mM HEPES (HBSS/Hepes buffer). The cells were then dye loaded with 2 uM Fluo-4 diluted in the HBSS/Hepes buffer with 1.25 mM Probenecid and incubated at 37° C. for 40 minutes. Extracellular dye was removed by washing the cell plates four times prior to placing the plates in the FLIPR (Fluorometric Imaging Plate Reader, Molecular Devices). Ligands were diluted in HBSS/Hepes buffer and prepared in 384-well microplates. The positive control, Sphingosine-1-Phosphate (SIP), was diluted in HBSS/Hepes buffer with 4 mg/ml fatty acid free bovine serum albumin. The FLIPR transferred 12.5 μl from the ligand microplate to the cell plate and took fluorescent measurements for 75 seconds, taking readings every second, and then for 2.5 minutes, taking readings every 10 seconds. Drugs were tested over the concentration range of 0.61 nM to 10,000 nM. Data for Ca^+2 responses were obtained in arbitrary fluorescence units and not translated into Ca^+2 concentrations. IC50 values were determined through a […] analysis using the Levenburg Marquardt algorithm.

perfused porcine eyes = details: by altering paracellular permeability, IOVS 45, 2263, 2004; cited from earlier work
[1] = T24 cells stably expressing human S1P3, antagonist activity, tested 0.61 nM to 10,000 nM, read-out: S1P3 IC50
[2] = T-24, T24 cells stably expressing human S1P3, antagonist activity, value in parentheses, read-out: S1P3 (% eff.)

T1 sequence (Q99500 whole entry): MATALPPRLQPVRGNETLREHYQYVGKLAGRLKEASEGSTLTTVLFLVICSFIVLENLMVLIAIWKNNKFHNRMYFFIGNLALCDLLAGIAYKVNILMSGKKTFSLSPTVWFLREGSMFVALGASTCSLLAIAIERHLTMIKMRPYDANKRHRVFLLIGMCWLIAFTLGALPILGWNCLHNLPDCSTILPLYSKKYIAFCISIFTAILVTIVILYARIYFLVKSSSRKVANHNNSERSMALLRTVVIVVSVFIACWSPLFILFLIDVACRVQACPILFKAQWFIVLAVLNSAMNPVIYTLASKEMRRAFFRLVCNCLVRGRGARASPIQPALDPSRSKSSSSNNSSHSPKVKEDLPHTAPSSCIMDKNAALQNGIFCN

Row | Structure (SMILES) | IC50 (human S1P3 receptor) [nM] | Emax (human S1P3 receptor; T-24, read-out: S1P3 (% eff.)) [%] | IC50 (human S1P3 receptor; [1]) [nM] | Emax (human S1P3 receptor; [2]) [%] | decrease of outflow facility (perfused porcine eyes) [%]
1 | Cc1c(C(=O)NCc2ccc(F)c(F)c2)c2cc(O)ccc2n1Cc1cccs1 [Compound 4, 5-Hydroxy-2-methyl-1-thiophen-2-ylmethyl-1H-indole-3-carboxylic Acid, 3,4-Difluorobenzylamide] | 1700 | 66 |  |  | 
2 | Cc1c(C(=O)NCc2cccc(Cl)c2)c2cc(O)ccc2n1Cc1cccs1 [Compound 21, 5-Hydroxy-2-methyl-1-thiophen-2-ylmethyl-1H-indole-3-carboxylic Acid, 3-Chlorobenzylamide] | 1200 | 38 |  |  | 
3 | Cc1c(C(=O)NCc2ccc(F)c(F)c2)c2cc(O)ccc2n1-c1cccs1 [Compound 31, 5-Hydroxy-2-methyl-1-thiophen-2-yl-1H-indole-3-carboxylic Acid 3,4-Difluorobenzylamide] |  |  | 2500 | 81 | 
4 | Cc1c(C(=O)NCc2ccc(F)c(F)c2)c2cc(O)ccc2n1-c1ccccc1 [Compound 29, 5-Hydroxy-2-methyl-1-phenyl-1H-indole-3-carboxylic Acid 3,4-Difluoro-benzylamide] |  |  | 9700 | 76 | 
5 | Cc1ccc(CNC(=O)c2c(C)n(Cc3cccs3)c3ccc(O)cc23)cc1 [Compound 20, 5-Hydroxy-2-methyl-1-thiophen-2-ylmethyl-1H-indole-3-carboxylic Acid, 4-Methylbenzylamide] | 2500 | 71 |  |  | 
6 | COc1cccc(CNC(=O)c2c(C(C)C)n(Cc3ccccc3)c3ccc(O)cc23)c1 [Compound 34, 1-Benzyl-5-hydroxy-2-isopropyl-1H-indole-3-carboxylic Acid, 3-methoxybenzylamide] | 410 | 98 |  |  | 
7 | COc1ccccc1CNC(=O)c1c(C)n(Cc2cccs2)c2ccc(O)cc12 [Compound 23, 5-Hydroxy-2-methyl-1-thiophen-2-ylmethyl-1H-indole-3-carboxylic Acid, 2-methoxybenzylamide] | 2400 | 23 |  |  | 
8 | Cc1c(C(=O)NCc2ccccc2)c2cc(O)ccc2n1Cc1cccs1 [Compound 15, 5-Hydroxy-2-methyl-1-thiophen-2-ylmethyl-1H-indole-3-carboxylic Acid, Benzylamide] | 1600 | 48 |  |  | 
9 | Cc1c(C(=O)NCc2cc(F)cc(F)c2)c2cc(O)ccc2n1Cc1ccco1 [Compound 12, 1-Furan-2-ylmethyl-5-hydroxy-2-methyl-1H-indole-3-carboxylic Acid 3,5-Difluorobenzylamide] | 950 | 77 |  |  | 
10 | Cc1c(C(=O)NCc2cc(F)cc(F)c2)c2cc(O)ccc2n1Cc1ccccc1 [Compound 3, 1-Benzyl-5-hydroxy-2-methyl-1H-indole-3-carboxylic Acid, 3,5-Difluorobenzylamide] | 510 | 53 |  |  | 
11 | CCCCn1c(C)c(C(=O)NCc2cc(F)cc(F)c2)c2cc(O)ccc21 [Compound 6, 1-Butyl-5-hydroxy-2-methyl-1H-indole-3-carboxylic Acid, 3,5-Difluoro-benzylamide] | 2500 | 55 |  |  | 
12 | CCCCn1c(C)c(C(=O)NCc2cccc(OC)c2)c2cc(O)ccc21 [Compound 18, 1-Butyl-5-hydroxy-2-methyl-1H-indole-3-carboxylic Acid, 3-Methoxy-benzylamide] | 5100 | 42 |  |  | 
13 | CCc1c(C(=O)NCc2cc(F)cc(F)c2)c2cc(O)ccc2n1Cc1ccccc1 [Compound 32, 1-Benzyl-2-ethyl-5-hydroxy-1H-indole-3-carboxylic Acid 3,5-Difluoro-benzylamide] | 280 | 97 |  |  | 
14 | O=C(NCc1cc(F)cc(F)c1)c1c(-c2ccccc2)n(Cc2ccccc2)c2ccc(O)cc12 [Compound 48, 1-Benzyl-5-hydroxy-2-phenyl-1H-indole-3-carboxylic Acid, 3,5-Difluoro-benzylamide] | 880 | 98 |  |  | 
15 | Cc1c(C(=O)NCc2ccc(Cl)cc2)c2cc(O)ccc2n1Cc1cccs1 [Compound 22, 5-Hydroxy-2-methyl-1-thiophen-2-ylmethyl-1H-indole-3-carboxylic Acid, 4-Chlorobenzylamide] | 2500 | 83 |  |  | 
16 | Cc1c(C(=O)NCc2ccc(F)cc2)c2cc(O)ccc2n1Cc1cccs1 [Compound 19, 5-Hydroxy-2-methyl-1-thiophen-2-ylmethyl-1H-indole-3-carboxylic Acid, 4-Fluorobenzylamide] | 2700 | 72 |  |  | 
17 | CCCCCCCCCCCCC/C=C/[C@@H](O)[C@@H](N)COP(=O)(O)O [Compound S1P, Sphingosine-1-Phosphate] |  |  |  |  | > 30
18 | COc1cccc(CNC(=O)c2c(C)n(Cc3cccs3)c3ccc(O)cc23)c1 [Compound 17, 5-Hydroxy-2-methyl-1-thiophen-2-ylmethyl-1H-indole-3-carboxylic Acid, 3-Methoxybenzylamide] | 910 | 33 |  |  | 
19 | CC(C)c1c(C(=O)NCc2ccc(F)c(F)c2)c2cc(O)ccc2n1Cc1ccccc1 [Compound 28, 1-Benzyl-5-hydroxy-2-isopropyl-1H-indole-3-carboxylic Acid, 3,4-Difluorobenzamide] | 55 | 98 |  |  | 
20 | Cc1c(C(=O)NCc2ccc(F)c(F)c2)c2cc(O)ccc2n1Cc1ccccc1 [Compound 13, 1-Benzyl-5-hydroxy-2-methyl-1H-indole-3-carboxylic Acid, 3,4-Difluoro-benzylamide] | 1500 | 84 |  |  | 
21 | CCc1c(C(=O)NCc2ccc(F)c(F)c2)c2cc(O)ccc2n1Cc1ccccc1 [Compound 25, 1-Benzyl-2-ethyl-5-hydroxy-1H-indole-3-carboxylic Acid, 3,4-Difluoro-benzylamide] | 700 | 98 |  |  | 
22 | Cc1c(C(=O)NCc2ccc(F)c(F)c2)c2cc(O)ccc2n1Cc1ccco1 [Compound 9, 1-Furan-2-ylmethyl-5-hydroxy-2-methyl-1H-indole-3-carboxylic Acid, 3,4-Difluorobenzylamide] | 2900 | 97 |  |  | 
23 | Cc1c(C(=O)NCc2ccc(F)c(F)c2)c2cc(O)ccc2n1-c1ccccn1 [Compound 30, 5-Hydroxy-2-methyl-1-pyridin-2-yl-1H-indole-3-carboxylic Acid 3,4-Difluoro-benzylamide] |  |  | 1500 | 23 | 
24 | CC(C)c1c(C(=O)NCc2cc(F)cc(F)c2)c2cc(O)ccc2n1Cc1ccccc1 [Compound 33, 1-Benzyl-5-hydroxy-2-isopropyl-1H-indole-3-carboxylic Acid, 3,5-difluorobenzylamide] | 110 | 99 |  |  | 
25 | Cc1c(C(=O)NCc2cc(F)cc(F)c2)c2cc(O)ccc2n1Cc1cccs1 [Compound 11, 5-Hydroxy-2-methyl-1-thiophen-2-ylmethyl-1H-indole-3-carboxylic Acid, 3,5-Difluorobenzylamide] | 1800 | 67 |  |  | 
26 | Cc1c(C(=O)NCc2cccc(F)c2)c2cc(O)ccc2n1Cc1cccs1 [Compound 14, 5-Hydroxy-2-methyl-1-thiophen-2-ylmethyl-1H-indole-3-carboxylic Acid, 3-Fluorobenzylamide] | 3200 | 85 |  |  | 
27 | CCc1c(C(=O)NCc2cccc(OC)c2)c2cc(O)ccc2n1Cc1ccccc1 [Compound 26, 1-Benzyl-2-ethyl-5-hydroxy-1H-indole-3-carboxylic Acid, 3-Methoxy-benzylamide] | 1900 | 97 |  |  | 
